Experimental data taken from patent US9192650B2, “Methods of inhibiting photoreceptor apoptosis by eliciting the Faim2 antiapoptotic pathway” (The Regents of the University of Michigan, priority 2011, dated 2015).
“Also recorded” adds a separate entry of the source.

What was measured:
c-Jun = assay: Immunoblot of phosphorylation of JNK-target c-Jun (P-c-Jun) in Fas-AAb treated 661W cells; type: cell-based; settings: inhibitor pretreatment 1 hour before Fas-AAb
Method: (§1) The 661W cell line was maintained in Dulbecco's modified Eagle's medium containing 10% fetal bovine serum, 300 mg/L glutamine, 32 mg/L putrescine, 40 μL/L of β-mercaptoethanol, and 40 μg/L of both hydrocortisone 21-hemisuccinate and progesterone. The media also contained penicillin (90 units/mL) and streptomycin (0.09 mg/mL). Cells were grown at 37° C. in a humidified atmosphere of 5% CO2 and 95% air.
(§2) Retinas from experimental eyes with detachments and control eyes without detachments were dissected from the RPE-choroid, homogenized, and lysed in buffer containing 10 mM HEPES (pH 7.6), 0.5% IgEPal, 42 mM KCl, 1 mM phenylmethylsulfonyl fluoride (PMSF), 1 mM EDTA, 1 mM EGTA, 1 mM dithiothreitol (DTT), and 5 mM MgCl2 and 1 tablet of protease inhibitors per 10 mL buffer (Complete Mini; Roche Diagnostics GmbH, Madison, Wis.). 661W cells were lysed and homogenized in lysis buffer (as above). The homogenates were incubated on ice and centrifuged at 22,000 g at 4° C. for 60 minutes. The protein concentration of the supernatant was then determined (DC Protein Assay kit; Bio-Rad Laboratories, Hercules, Calif.). The protein samples were separated on SDS-polyacrylamide gels (Tris-HCl Ready Gels; Bio-Rad Laboratories, Hercules, Calif.). […] Protein bands were visualized with Ponceau S staining, and the lanes were assessed for equal loading by densitometry of entire lanes. […]

caspase 8 = assay: Luminescent caspase 8 activity assay in 661W cells; type: cell-based
Method: as §1
Caspase 8 and Caspase 3 activity were measured by a commercially available luminescent tetrapeptide cleavage assay kits (Promega, Madison, Wis.). The 661W cells were seeded in 96-well plates (Nunc, Rochester, N.Y.) at 1000-1500 cells/well for 24 hours prior to treatment or siRNA transfection. Cells were treated with 500 ng/mL of Fas-agonistic Jo2 monoclonal antibody (BD Biosciences, Franklin Lakes, N.J.). In some experiments, cells were pretreated with MEK inhibitor U0126, JNK inhibitor SP600125, or DMSO. Caspase activity was measured at various time points by incubating the cells with the pro-luminescent substrate in 96-well plates following manufacturer's instructions. Controls included untreated cells and wells with no cells. Luminescence was measured in a plate reader luminometer (Turner Biosystems, Sunnyvale, Calif.). […]

661W cells = assay: Luminescent cell viability assay, Fas-mediated cell death of 661W cells; type: cell-based; settings: 661W cells treated with Fas-AAb
Method: as §1
Cell viability was measured by a commercially available luminescent assay kit (Promega, Madison, Wis.). The 661W cells were seeded in 96-well plates (Nunc, Rochester, N.Y.) at 1000-1500 cells/well for 24 hours prior to treatment. Cells were treated with 500 ng/mL of Fas-agonistic Jo2 monoclonal antibody (BD Biosciences, Franklin Lakes, N.J.). In some experiments, cells were pretreated with MEK inhibitor U0126, JNK inhibitor SP600125, or DMSO. Cell viability was measured at various time points by incubating the cells with the pro-luminescent substrate in 96-well plates following manufacturer's instructions. Controls included untreated cells and wells with no cells. Luminescence was measured in a plate reader luminometer (Turner Biosystems, Sunnyvale Calif.).

caspase 3 = assay: Luminescent caspase 3 activity assay in 661W cells; type: cell-based
Method: as §1
Caspase 8 and Caspase 3 activity were measured by a commercially available luminescent tetrapeptide cleavage assay kits (Promega, Madison, Wis.). The 661W cells were seeded in 96-well plates (Nunc, Rochester, N.Y.) at 1000-1500 cells/well for 24 hours prior to treatment or siRNA transfection. Cells were treated with 500 ng/mL of Fas-agonistic Jo2 monoclonal antibody (BD Biosciences, Franklin Lakes, N.J.). In some experiments, cells were pretreated with MEK inhibitor U0126, JNK inhibitor SP600125, or DMSO. Caspase activity was measured at various time points by incubating the cells with the pro-luminescent substrate in 96-well plates following manufacturer's instructions. Controls included untreated cells and wells with no cells. Luminescence was measured in a plate reader luminometer (Turner Biosystems, Sunnyvale, Calif.).

Faim2 = assay: Immunoblot of Faim2 protein levels in 661W cells; type: cell-based, mouse; settings: 661W cells treated with Fas-AAb
Method: as §1, §2

ERK = assay: Immunoblot of ERK phosphorylation (P-ERK) in Fas-AAb treated 661W cells; type: cell-based; settings: inhibitor pretreatment 1 hour before Fas-AAb
Method: as §1, §2

[1] = 661W cells treated with Fas-AAb
[2] = 661W cells, 24 hours of Fas-AAb treatment

| SMILES | Concentration of maximal effect on Fas-AAb-dependent c-Jun phosphorylation (c-Jun) [µM] | Maximally-effective dose for increasing caspase 8 activity (caspase 8; [1]) [µM] | Caspase 8 activity in presence of inhibitor (caspase 8; [2]) | Fas-AAb-mediated cell death in presence of inhibitor (661W cells) | Maximally-effective dose for increasing caspase 3 activity (caspase 3; [1]) [µM] | Caspase 3 activity in presence of inhibitor (caspase 3; [2]) | Faim2 levels in Fas-AAb treated cells in presence of MAPK inhibitor (Faim2) | Faim2 level by densitometry (Faim2; 10 μM dose of inhibitor) | Concentration of maximal inhibition of Fas-AAb-induced ERK phosphorylation (ERK) [µM] | Effect on Fas-AAb-induced phosphorylation of ERK (ERK; protein isolated 4 hours later) |
| --- | --- | --- | --- | --- | --- | --- | --- | --- | --- | --- |
| Oc1c2ccccc2c2c3c(cccc13)N=N2 [SP600125] | 10 to 20 |  |  |  |  |  |  |  |  |  |
| N#CC(=C(/N)Sc1ccccc1N)/C(C#N)=C(\N)Sc1ccccc1N [U0126] |  | 10 | dose-dependent increase | increased Fas-AAb-mediated cell death | 10 | dose-dependent increase | dose-dependent inhibition; also recorded: reduced the levels of Faim2 | significant decrease | 10 | effective in preventing |
